Measured values: PMC6651611 (Slas Discovery, 2019)

How the values were obtained:
CYP130A1 (CYP130A1-BM3R) = CYP130A1 (CYP130A1-BM3R) (Mycobacterium tuberculosis, UniProt P9WPN5); assay: biochemical
CYP125A1 = CYP125A1 (Mycobacterium tuberculosis, UniProt P9WPP1); assay type: biochemical
CYP124A1 = CYP124A1 (Mycobacterium tuberculosis, UniProt P9WPP3); assay type: biochemical
[1] = system: O=C(O)[C@H]1CSC(c2nc3ccc(OCc4ccccc4)cc3s2)=N1; assay: purified protein
[2] = system: COc1ccc2nc(C3=N[C@@H](C(=O)OCCO)CS3)sc2c1; assay: purified protein

Compound: CC(=O)N1CCN(c2ccc(OC[C@H]3CO[C@](Cn4ccnc4)(c4ccc(Cl)cc4Cl)O3)cc2)CC1 (racemic) [ketoconazole]
- IC50 (CYP130A1 (CYP130A1-BM3R)): 100 ± 20 nM

Compound: COc1ccc2nc(C3=N[C@@H](C(=O)OCCO)CS3)sc2c1 [Luciferin-ME EGE]
- luminescence turnover assay with purified enzyme (S/B 7.8) (CYP125A1): Luciferin-ME EGE was the only pro-luciferin substrate metabolized by these three cholesterol-metabolizing Mtb CYPs
- luminescence turnover assay with purified enzyme (S/B 7.3) (CYP124A1): Luciferin-ME EGE was the only pro-luciferin substrate metabolized by these three cholesterol-metabolizing Mtb CYPs

Compound: Clc1ccc(COC(Cn2ccnc2)c2ccc(Cl)cc2Cl)cc1 (stereo not shown) [econazole]
- IC50 (CYP130A1 (CYP130A1-BM3R)): 50 ± 10 nM

Compound: Clc1ccc(COC(Cn2ccnc2)c2ccc(Cl)cc2Cl)c(Cl)c1 (stereo not shown) [miconazole]
- IC50 (CYP130A1 (CYP130A1-BM3R)): 17 ± 3 nM

Compound: CYP130A1 (CYP130A1-BM3R) (Mycobacterium tuberculosis H37Rv)
- Km [1]: 37 ± 2.4 µM
- kcat [1]: 0.000667 ± 1.33e-05 s⁻¹
- kcat/Km [1]: 18.3 M⁻¹ s⁻¹

Compound: CYP142A1 (Mycobacterium tuberculosis H37Rv)
- Km [2]: 270 ± 22 µM
- kcat/Km [2]: 0.00333 M⁻¹ s⁻¹
